Laboratory results: ChEMBL document CHEMBL4308846, “How Selective Are Pharmacological Inhibitors of Cell-Cycle-Regulating Cyclin-Dependent Kinases?” (J Med Chem, 2018)
Calls of active or inactive are those of the source. The rule behind the calls is not given here.

Key:
HCT-116 [1] = test: Induction of cell cycle arrest in human HCT116 cells assessed as accumulation at G2/M phase at 0.05 to 0.5 uM after 24 hrs by propidium iodide-staining based flow cytometry relative to control; type: functional
[2] = biological target: T1, Cyclin-dependent kinase 5/CDK5 activator 1 (Homo sapiens) (UniProt Q00535+Q15078); test: Inhibition of CDK5/p25 in human HCT116 cells assessed as induction of dephosphorylation of FAK at Ser732 residue at 250 to 500 nM after 24 hrs by Western blot analysis; type: cell-based
T1 sequence (Q00535 whole entry): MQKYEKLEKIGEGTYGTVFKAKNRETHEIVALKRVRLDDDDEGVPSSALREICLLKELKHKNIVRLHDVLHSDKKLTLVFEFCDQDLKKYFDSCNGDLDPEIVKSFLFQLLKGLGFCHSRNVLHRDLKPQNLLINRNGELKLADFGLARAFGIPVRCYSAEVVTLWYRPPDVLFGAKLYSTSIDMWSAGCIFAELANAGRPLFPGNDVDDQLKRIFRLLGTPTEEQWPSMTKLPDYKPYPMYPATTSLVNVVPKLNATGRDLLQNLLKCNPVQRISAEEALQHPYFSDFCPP
T1 sequence (Q15078 99-307 partner limits assumed): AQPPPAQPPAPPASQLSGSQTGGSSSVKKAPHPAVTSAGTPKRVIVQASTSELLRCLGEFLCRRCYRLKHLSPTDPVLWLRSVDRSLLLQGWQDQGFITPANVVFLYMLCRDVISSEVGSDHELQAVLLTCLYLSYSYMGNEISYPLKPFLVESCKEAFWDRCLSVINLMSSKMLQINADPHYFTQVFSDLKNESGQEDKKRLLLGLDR

[3] = biological target: Cyclin-dependent kinase 7 (Homo sapiens) (UniProt P50613); test: Inhibition of CDK7 in human HCT116 cells assessed as induction of dephosphorylation of RNA polymerase 2 S2/S5 residues at 250 to 500 nM after 24 hrs by Western blot analysis; type: cell-based
Chain of Cyclin-dependent kinase 7 (Homo sapiens) (P50613 whole entry): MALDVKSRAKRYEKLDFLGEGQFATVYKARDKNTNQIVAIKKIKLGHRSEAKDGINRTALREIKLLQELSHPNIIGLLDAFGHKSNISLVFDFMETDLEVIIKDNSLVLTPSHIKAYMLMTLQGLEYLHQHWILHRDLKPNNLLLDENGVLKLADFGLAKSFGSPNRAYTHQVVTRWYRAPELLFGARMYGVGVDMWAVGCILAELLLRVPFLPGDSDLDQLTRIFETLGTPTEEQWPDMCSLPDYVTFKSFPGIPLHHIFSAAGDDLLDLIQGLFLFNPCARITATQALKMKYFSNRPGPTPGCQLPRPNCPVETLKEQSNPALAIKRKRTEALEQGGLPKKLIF

[4] = biological target: Cyclin-dependent kinase 9 (Homo sapiens) (UniProt P50750); test: Inhibition of CDK9 in human HCT116 cells assessed as induction of dephosphorylation of RNA polymerase 2 S2/S5 residues at 250 to 500 nM after 24 hrs by Western blot analysis; type: cell-based
Chain of Cyclin-dependent kinase 9 (Homo sapiens) (P50750 whole entry): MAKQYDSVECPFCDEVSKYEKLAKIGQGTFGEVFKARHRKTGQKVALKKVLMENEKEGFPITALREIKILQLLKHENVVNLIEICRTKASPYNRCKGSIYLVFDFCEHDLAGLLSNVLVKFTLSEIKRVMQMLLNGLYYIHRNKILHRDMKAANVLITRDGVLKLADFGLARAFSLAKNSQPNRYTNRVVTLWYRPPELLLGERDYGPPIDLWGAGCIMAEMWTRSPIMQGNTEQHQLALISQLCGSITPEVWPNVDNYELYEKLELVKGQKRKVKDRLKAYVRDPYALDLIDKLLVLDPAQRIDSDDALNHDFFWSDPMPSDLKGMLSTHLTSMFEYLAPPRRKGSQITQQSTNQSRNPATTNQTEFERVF

HCT-116 [5] = test: Induction of cell cycle arrest in CDK2 knocked out human HCT116 cells assessed as accumulation at G2/M phase at 100 to 500 nM after 24 hrs by propidium iodide-staining based flow cytometry; type: functional
[6] = biological target: Cyclin-dependent kinase 1/cyclin B1 (Homo sapiens, UniProt P06493); test: biochemical
Chain of Cyclin-dependent kinase 1/cyclin B1 (P06493 whole entry): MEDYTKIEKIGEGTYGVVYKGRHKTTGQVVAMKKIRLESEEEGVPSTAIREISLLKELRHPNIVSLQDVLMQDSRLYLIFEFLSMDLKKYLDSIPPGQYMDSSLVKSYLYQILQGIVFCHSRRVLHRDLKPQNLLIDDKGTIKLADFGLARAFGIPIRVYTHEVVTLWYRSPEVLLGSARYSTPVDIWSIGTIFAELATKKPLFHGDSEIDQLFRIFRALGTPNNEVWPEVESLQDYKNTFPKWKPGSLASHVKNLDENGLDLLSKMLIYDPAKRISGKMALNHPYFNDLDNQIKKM
Chain of Cyclin-dependent kinase 1/cyclin B1 (P14635 whole entry, further chain): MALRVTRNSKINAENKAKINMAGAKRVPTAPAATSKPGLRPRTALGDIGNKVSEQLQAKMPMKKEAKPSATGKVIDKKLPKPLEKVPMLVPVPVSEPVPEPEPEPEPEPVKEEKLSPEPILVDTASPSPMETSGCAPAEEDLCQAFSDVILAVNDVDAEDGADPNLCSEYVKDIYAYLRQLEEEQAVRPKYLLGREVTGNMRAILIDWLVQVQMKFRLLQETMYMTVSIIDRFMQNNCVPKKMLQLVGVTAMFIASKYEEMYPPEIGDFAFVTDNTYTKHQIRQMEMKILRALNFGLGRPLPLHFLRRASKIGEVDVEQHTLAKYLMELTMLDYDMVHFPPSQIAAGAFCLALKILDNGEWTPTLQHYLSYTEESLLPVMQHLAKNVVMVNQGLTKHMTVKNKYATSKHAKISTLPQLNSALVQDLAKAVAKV

[7] = biological target: Cyclin-dependent kinase 4/cyclin D1 (Homo sapiens, UniProt P11802); test: biochemical
Chain of Cyclin-dependent kinase 4/cyclin D1 (P11802 whole entry): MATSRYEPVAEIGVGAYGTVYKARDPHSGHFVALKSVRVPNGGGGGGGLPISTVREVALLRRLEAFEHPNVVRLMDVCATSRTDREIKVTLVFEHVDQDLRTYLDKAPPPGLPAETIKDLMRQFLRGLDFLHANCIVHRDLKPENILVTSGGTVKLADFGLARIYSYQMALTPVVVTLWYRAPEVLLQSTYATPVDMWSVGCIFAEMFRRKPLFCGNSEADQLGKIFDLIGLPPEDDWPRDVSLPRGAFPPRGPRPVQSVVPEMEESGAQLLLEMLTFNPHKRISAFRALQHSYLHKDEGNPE
Chain of Cyclin-dependent kinase 4/cyclin D1 (P24385 whole entry, further chain): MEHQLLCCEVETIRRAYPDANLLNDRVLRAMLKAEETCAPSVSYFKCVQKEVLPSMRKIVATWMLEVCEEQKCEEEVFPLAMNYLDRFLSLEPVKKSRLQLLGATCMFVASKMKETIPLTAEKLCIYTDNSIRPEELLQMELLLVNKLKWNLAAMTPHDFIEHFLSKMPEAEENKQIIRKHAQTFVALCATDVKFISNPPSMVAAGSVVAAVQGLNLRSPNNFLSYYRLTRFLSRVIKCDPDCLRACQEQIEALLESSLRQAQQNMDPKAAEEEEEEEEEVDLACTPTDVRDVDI

[8] = biological target: Cyclin-dependent kinase 5/CDK5 activator 1 (Homo sapiens, UniProt Q00535); test: biochemical
Chain of Cyclin-dependent kinase 5/CDK5 activator 1 (Q00535 whole entry): as the sequence (Q00535 whole entry) above
Chain of Cyclin-dependent kinase 5/CDK5 activator 1 (Q15078 whole entry, further chain): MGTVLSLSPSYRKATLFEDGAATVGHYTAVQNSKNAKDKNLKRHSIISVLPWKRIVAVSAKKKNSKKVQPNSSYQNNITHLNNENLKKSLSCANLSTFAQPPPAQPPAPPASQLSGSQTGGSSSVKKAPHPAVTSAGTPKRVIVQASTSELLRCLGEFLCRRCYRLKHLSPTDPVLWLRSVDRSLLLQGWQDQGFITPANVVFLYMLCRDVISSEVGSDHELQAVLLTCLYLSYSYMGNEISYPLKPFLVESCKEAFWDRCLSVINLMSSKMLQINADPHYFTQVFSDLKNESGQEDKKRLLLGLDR

CDK7/Cyclin H/MNAT1 = CDK7/Cyclin H/MNAT1 (Homo sapiens, UniProt P50613); test: biochemical
Chain of CDK7/Cyclin H/MNAT1 (P51946 whole entry): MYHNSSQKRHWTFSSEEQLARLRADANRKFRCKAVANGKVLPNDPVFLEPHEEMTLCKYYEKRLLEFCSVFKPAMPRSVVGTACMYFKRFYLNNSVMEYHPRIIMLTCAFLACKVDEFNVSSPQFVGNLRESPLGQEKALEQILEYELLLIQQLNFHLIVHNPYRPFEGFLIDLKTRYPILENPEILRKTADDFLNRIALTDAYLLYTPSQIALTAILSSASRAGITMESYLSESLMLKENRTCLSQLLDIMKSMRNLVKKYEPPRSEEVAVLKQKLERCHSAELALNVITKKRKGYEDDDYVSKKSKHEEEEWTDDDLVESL
Chain of CDK7/Cyclin H/MNAT1 (P50613 whole entry): as the sequence (P50613 whole entry) above
Chain of CDK7/Cyclin H/MNAT1 (P51948 whole entry, further chain): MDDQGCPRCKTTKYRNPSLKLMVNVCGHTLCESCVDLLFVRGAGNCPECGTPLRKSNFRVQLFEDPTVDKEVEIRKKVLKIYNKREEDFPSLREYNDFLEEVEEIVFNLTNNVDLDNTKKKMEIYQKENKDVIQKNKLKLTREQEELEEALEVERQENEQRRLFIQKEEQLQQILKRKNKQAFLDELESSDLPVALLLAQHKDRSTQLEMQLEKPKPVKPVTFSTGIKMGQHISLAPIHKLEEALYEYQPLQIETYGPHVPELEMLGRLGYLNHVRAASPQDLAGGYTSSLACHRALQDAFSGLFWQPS

CDK9/cyclin T1 = CDK9/cyclin T1 (Homo sapiens, UniProt P50750); test: biochemical
Chain of CDK9/cyclin T1 (O60563 whole entry): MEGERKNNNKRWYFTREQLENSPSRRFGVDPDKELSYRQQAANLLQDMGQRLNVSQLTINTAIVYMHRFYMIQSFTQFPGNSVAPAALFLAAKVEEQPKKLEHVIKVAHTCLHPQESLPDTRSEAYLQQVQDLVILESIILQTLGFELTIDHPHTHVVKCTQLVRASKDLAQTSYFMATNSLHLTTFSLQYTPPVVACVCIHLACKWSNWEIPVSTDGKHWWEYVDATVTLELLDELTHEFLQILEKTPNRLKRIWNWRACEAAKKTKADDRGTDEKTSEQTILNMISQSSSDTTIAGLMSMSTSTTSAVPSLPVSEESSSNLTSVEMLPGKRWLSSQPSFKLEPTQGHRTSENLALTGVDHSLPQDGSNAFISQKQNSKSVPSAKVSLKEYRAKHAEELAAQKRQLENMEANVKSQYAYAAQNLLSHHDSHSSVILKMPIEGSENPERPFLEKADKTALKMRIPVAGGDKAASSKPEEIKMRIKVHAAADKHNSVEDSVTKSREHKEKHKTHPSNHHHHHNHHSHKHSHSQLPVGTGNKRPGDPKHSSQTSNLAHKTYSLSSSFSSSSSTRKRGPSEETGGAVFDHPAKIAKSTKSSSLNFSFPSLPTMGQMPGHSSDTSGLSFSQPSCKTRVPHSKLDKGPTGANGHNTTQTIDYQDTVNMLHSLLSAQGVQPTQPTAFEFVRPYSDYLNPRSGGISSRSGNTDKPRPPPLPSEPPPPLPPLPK
Chain of CDK9/cyclin T1 (P50750 whole entry): as the sequence (P50750 whole entry) above

HCT-116 [9] = test: Induction of cell cycle arrest in human HCT116 cells assessed as reduction in accumulation at G1 phase 19.8 to 100 uM after 24 hrs by propidium iodide-staining based flow cytometry; type: functional
CDK2/Cyclin A2 = CDK2/Cyclin A2 (Homo sapiens, UniProt P24941)
[10] = biological target: Cyclin-dependent kinase 2/cyclin E1 (Homo sapiens, UniProt P24941); test: biochemical
HCT-116 [11] = test: Induction of cell cycle arrest in human HCT116 cells assessed as accumulation at G2/M phase after 24 hrs by propidium iodide-staining based flow cytometry; type: functional
HCT-116 [12] = test: Induction of cell cycle arrest in CDK2 knocked out human HCT116 cells assessed as accumulation at G2/M phase at 5 to 20 uM after 24 hrs by propidium iodide-staining based flow cytometry; type: functional
HCT-116 [13] = test: Induction of cell cycle arrest in human HCT116 cells assessed as accumulation at G2/M phase at 5 to 20 uM after 24 hrs by propidium iodide-staining based flow cytometry; type: functional
HCT-116 [14] = test: Induction of cell cycle arrest in human HCT116 cells assessed as accumulation at G2/M phase at 19.8 to 100 uM after 24 hrs by propidium iodide-staining based flow cytometry relative to control; type: functional
HCT-116 [15] = test: Induction of cell cycle arrest in human HCT116 cells assessed as reduction in accumulation at G1 phase 1.25 to 20 uM after 24 hrs by propidium iodide-staining based flow cytometry; type: functional
HCT-116 [16] = test: Induction of cell cycle arrest in human HCT116 cells assessed as accumulation at G2/M phase 1.25 to 20 uM after 24 hrs by propidium iodide-staining based flow cytometry relative to control; type: functional
HCT-116 [17] = test: Induction of cell cycle arrest in human HCT116 cells assessed as reduction in accumulation at G1 phase at 0.5 to 5.9 uM after 24 hrs by propidium iodide-staining based flow cytometry; type: functional; set-up: scale not given: the % may be the effect or the level left
[18] = biological target: Cyclin-dependent kinase 4 (Homo sapiens) (UniProt P11802); test: Inhibition of CDK4 (unknown origin) at 10 uM
Chain of Cyclin-dependent kinase 4 (Homo sapiens) (P11802 whole entry): as the sequence (P11802 whole entry) above

[19] = biological target: Cyclin-dependent kinase 6 (Homo sapiens) (UniProt Q00534); test: Inhibition of CDK6 (unknown origin) at 10 uM
HCT-116 [20] = test: Induction of cell cycle arrest in human HCT116 cells assessed as reduction in accumulation at G1 phase at 1.7 to 19.8 uM after 24 hrs by propidium iodide-staining based flow cytometry; type: functional
HCT-116 [21] = test: Induction of cell cycle arrest in human HCT116 cells assessed as accumulation at G2/M phase at 1.7 to 19.8 uM after 24 hrs by propidium iodide-staining based flow cytometry; type: functional
HCT-116 [22] = test: Induction of cell cycle arrest in human HCT116 cells assessed as accumulation at G2/M phase at 2.6 to 19.8 uM after 24 hrs by propidium iodide-staining based flow cytometry relative to control; type: functional
Aurora kinase A = biological target: T2, Aurora kinase A (Homo sapiens, UniProt O14965); test: Inhibition of GST-tagged AURORA A (unknown origin) expressed in baculovirus infected Sf9 cells using MBP as substrate
T2 sequence (O14965 whole entry): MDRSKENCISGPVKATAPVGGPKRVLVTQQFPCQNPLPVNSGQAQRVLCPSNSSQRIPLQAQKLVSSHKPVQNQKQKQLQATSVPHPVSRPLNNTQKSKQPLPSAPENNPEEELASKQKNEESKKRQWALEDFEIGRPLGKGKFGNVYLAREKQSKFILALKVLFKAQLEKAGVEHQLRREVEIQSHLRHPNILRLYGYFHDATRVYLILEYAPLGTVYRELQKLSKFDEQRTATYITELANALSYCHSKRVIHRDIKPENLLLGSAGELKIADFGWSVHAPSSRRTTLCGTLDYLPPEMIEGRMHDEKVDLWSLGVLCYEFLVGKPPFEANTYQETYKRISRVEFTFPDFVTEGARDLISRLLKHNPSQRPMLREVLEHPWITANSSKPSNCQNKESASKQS

Aurora kinase B = Aurora kinase B (Homo sapiens, UniProt Q96GD4); test: biochemical
HCT-116 [23] = test: Induction of cell cycle arrest in human HCT116 cells at 19.8 to 100 uM after 24 hrs by propidium iodide-staining based flow cytometry relative to control; type: functional
HCT-116 [24] = test: Induction of cell cycle arrest in human HCT116 cells assessed as reduction in accumulation at G1 phase at 8.8 to 100 uM after 24 hrs by propidium iodide-staining based flow cytometry; type: functional; set-up: scale not given: the % may be the effect or the level left
HCT-116 [25] = test: Induction of cell cycle arrest in CDK2 knocked out human HCT116 cells assessed as accumulation at G2/M phase at 0.8 to 5.9 after 24 hrs by propidium iodide-staining based flow cytometry; type: functional
HCT-116 [26] = test: Induction of cell cycle arrest in CDK2 knocked out human HCT116 cells assessed as accumulation at G2/M phase at 0.5 to 3.9 after 24 hrs by propidium iodide-staining based flow cytometry; type: functional
[27] = biological target: T1, Cyclin-dependent kinase 5/CDK5 activator 1 (Homo sapiens); test: Inhibition of CDK5/p25 in human HCT116 cells assessed as induction of dephosphorylation of FAK at Ser732 residue at 10 to 50 uM after 24 hrs by Western blot analysis; type: cell-based
HCT-116 [28] = test: Induction of cell cycle arrest in CDK2 knocked out human HCT116 cells assessed as accumulation at G2/M phase at 13.2 to […] after 24 hrs by propidium iodide-staining based flow cytometry; type: functional
HCT-116 [29] = test: Induction of cell cycle arrest in human HCT116 cells assessed as reduction in accumulation at G1 phase 2.6 to 29.6 uM after 24 hrs by propidium iodide-staining based flow cytometry; type: functional
HCT-116 [30] = test: Induction of cell cycle arrest in human HCT116 cells assessed as accumulation at G2/M phase 2.6 to 29.6 uM after 24 hrs by propidium iodide-staining based flow cytometry relative to control; type: functional
HCT-116 [31] = test: Induction of cell cycle arrest in human HCT116 cells assessed as reduction in accumulation at G1 phase at 0.15 to […] after 24 hrs by propidium iodide-staining based flow cytometry; type: functional
HCT-116 [32] = test: Induction of cell cycle arrest in human HCT116 cells assessed as accumulation at G2/M phase at 0.15 to […] after 24 hrs by propidium iodide-staining based flow cytometry relative to control; type: functional
HCT-116 [33] = test: Induction of cell cycle arrest in human HCT116 cells assessed as accumulation at G2/M phase at 3.9 to 19.8 uM after 24 hrs by propidium iodide-staining based flow cytometry relative to control; type: functional

Row | Structure (SMILES) | IC50 [6] [nM] | IC50 [7] [nM] | IC50 [8] [nM] | IC50 (CDK7/Cyclin H/MNAT1) [nM] | IC50 (CDK9/cyclin T1) [nM] | IC50 (CDK2/Cyclin A2) [nM] | IC50 [10] [nM] | further results
1 | Nc1nc(Nc2ccc(S(N)(=O)=O)cc2)nn1C(=S)Nc1c(F)cccc1F | 2 | 59 | 0.2 | 66 | 30 |  |  | Activity (HCT-116 [1]): >=60%; inhibition [2]: Active; inhibition [3]: inactive; inhibition [4]: inactive; Activity (HCT-116 [5]): Active
2 | COc1ccc(OC)c2c(=S)c3ccccc3[nH]c12 | > 20000 | > 20000 | > 20000 | > 20000 | > 20000 | > 20000 | > 20000 | Activity (HCT-116 [9]): Active
3 | COc1ccc2c(c1)/C(=C/c1cnc[nH]1)C(=O)N2 [SU-9516] |  |  |  |  |  |  |  | Activity (HCT-116 [11]): 30 - 60%; Activity (HCT-116 [12]): Active; Activity (HCT-116 [13]): Active
4 | CCOC(=O)c1cnc2oc3ccc(O)cc3c2c1-c1ccccc1 | > 20000 | > 20000 | > 20000 | > 20000 | > 20000 | 7100 | 14300 | Activity (HCT-116 [14]): inactive
5 | O=C1NC(=O)c2c1c1c3ccccc3[nH]c1c1[nH]c3ccccc3c21 [STAUROSPORINE AGLYCON] | 964 | 199 | 936 | > 20000 | > 20000 | 135 |  | Activity (HCT-116 [15]): Active; Activity (HCT-116 [16]): >=60%
6 | Nc1cc(Nc2ccc(S(N)(=O)=O)cc2)ncn1 | 5300 | > 20000 | 4400 | > 20000 | > 20000 | 946 | 1900 | Activity [4]: inactive
7 | CCCOc1cnc(CN/C=C2\C(=O)NC(=O)c3ccc(I)cc32)cc1O | 290 | 38 | 1200 | > 20000 | 1000 | 71 | 501 | Activity (HCT-116 [17]): <=30%; inhibition [18]: Active; inhibition [19]: Active
8 | CCNc1cc(N[C@H]2CC[C@H](O)CC2)nc(Nc2ccc3c(ccn3Cc3ccccc3)c2)n1 |  |  | > 10000 | > 10000 | > 10000 |  |  | Activity (HCT-116 [20]): Active; Activity (HCT-116 [21]): 30 - 60%
9 | O=C1Nc2cc(Br)ccc2/C1=C1/Nc2ccccc2/C1=N\O [6BIO] |  |  |  | 3500 | 450 |  |  | Activity (HCT-116 [21]): <=30%
10 | O=C1Nc2ccccc2/C1=C\c1c(Cl)[nH]c2ccccc12 | 6700 | > 20000 | 5800 | 16000 | > 20000 | 13200 | 9400 | Activity (HCT-116 [22]): >=60%; IC50 (Aurora kinase A): > 20000 nM; IC50 (Aurora kinase B): 15600 nM
11 | CC(=O)c1cnc2oc3ccc(O)cc3c2c1-c1ccccc1 | > 20000 | > 20000 | 17500 | > 20000 | > 20000 | > 20000 | > 20000 | Activity (HCT-116 [14]): inactive
12 | O=C1Nc2ccc3ncsc3c2/C1=C/Nc1ccc(S(=O)(=O)Nc2ccccn2)cc1 | 49 | 139 | 7 | 317 |  |  |  | Activity (HCT-116 [11]): 30 - 60%
13 | Nc1n[nH]c2nc3ccccc3nc12 [QUINOXALINE1] | 9700 | > 20000 | 13700 | > 20000 | 14100 | 10 | 5600 | Activity (HCT-116 [23]): inactive
14 | COc1ccc(CNc2nc(N(CCO)CCO)nc3c2ncn3C(C)C)cc1 | 3700 | > 20000 | 419 | 9200 | 2300 |  |  | Activity (HCT-116 [11]): <=30%
15 | CC(C)c1cnc(NC(=O)Cc2ccccc2)s1 | 1700 | 20400 | 458 | 637 | 3400 | 353 | 195 | Activity (HCT-116 [24]): <=30%; Activity (HCT-116 [5]): Active; Activity (HCT-116 [25]): Active; Activity (HCT-116 [26]): Active; inhibition [27]: Active; Activity (HCT-116 [28]): Active
16 | O=C1NC(=O)c2c1c1c3ccccc3[nH]c1c1[nH]c3cc(Br)ccc3c21 | 1500 | 91 | 154 | > 20000 | 4000 | 185 | 229 | Activity (HCT-116 [29]): Active; Activity (HCT-116 [30]): <=30%
17 | CN1CCN(c2ccc(Nc3ncc4cc(C#N)c(=O)n(C5CCCC5)c4n3)cc2)CC1 [NARAZACICLIB] | 600 | 18 | 272 | 6000 | 117 | 55 | 377 | Activity (HCT-116 [31]): Active; Activity (HCT-116 [32]): >=60%
18 | CN(C)C(=O)c1cc2cnc(Nc3ccc(N4CCNCC4)cn3)nc2n1C1CCCC1 [RIBOCICLIB] |  |  | > 20000 | > 20000 |  |  |  | 
19 | CCn1cnc2c(Nc3cccc(Cl)c3)nc(N[C@@H]3CCCC[C@@H]3N)nc21 | 147 | 3000 | 26 | 279 | 1400 | 46 | 26 | Activity (HCT-116 [33]): <=30%
20 | CNC(=O)c1nn(C)c2c1C(C)(C)Cc1cnc(Nc3ccc(N4CCN(C)CC4)cc3)nc1-2 [MILCICLIB] | 1200 |  |  |  |  | 109 | 590 | Activity (HCT-116 [11]): 30 - 60%
